# Test: oral administration of norphenephrine and its salts to users: metabolic, appetite, mental and addiction effects
# Format: in vivo, human
smiles,measurement,setting,value
"NCC(O)c1cccc(O)c1 (centres unmarked) [norphenephrine, Norphenephrine]",time until the user experiences a vastly reduced appetite for food,after intake,≤ 30 min
same,interaction with caffeine (metabolic enhancement),co-administration of caffeine,synergy between caffeine and norphenephrine is observed
same,addictive / habituating nature,"even at high dosages, compared with amphetamines","not addictive, or even habituating"
same,adipose tissue loss versus lean body mass,in vivo,specifically enhance the loss of adipose tissue while preserving lean body mass
same,"focus, acuity and psychological outlook",in vivo,sustained and noticeable effect
same,overall metabolic rate,in vivo,increase a user's overall metabolic rate
same,insulin sensitivity,muscle tissue apart from adipose tissue,specifically increase insulin sensitivity in muscle tissue
same,fat mass,no changes to the user's current diet and exercise regimen,noticeable and quantifiable decrease in fat mass

# From patent publication US20090099215A1, “Metabolic enhancing properties of norphenephrine and its salts” (priority 2007, published 2009)
